System: MV-4-11 cells
Assay: Gene expression microarray analysis (Affymetrix PrimeView) and GSEA
Assay type: cell-based, human
Parameters: RFU PODN (11730768_x_at) / Fold change /veh PODN (11730768_x_at) / RFU LINC00158 (11744669_a_at) / Fold change /veh LINC00158 (11744669_a_at) / RFU DUSP10 (11751237_a_at) / Fold change /veh DUSP10 (11751237_a_at) / RFU ID3 (11757404_x_at) / Fold change /veh ID3 (11757404_x_at) / RFU PLEKHG5 (11737974_s_at) / Fold change /veh PLEKHG5 (11737974_s_at) / RFU LRRC4B (11730491_at) / Fold change /veh LRRC4B (11730491_at) / RFU GIMAP4 (11747438_a_at) / Fold change /veh GIMAP4 (11747438_a_at) / RFU KRT8 (11758183_x_at) / Fold change /veh KRT8 (11758183_x_at) / RFU CNN1 (11734310_a_at) / Fold change /veh CNN1 (11734310_a_at) / RFU VPS37D (11726825_at) / Fold change /veh VPS37D (11726825_at) / RFU C10orf10 (11716522_x_at) / Fold change /veh C10orf10 (11716522_x_at) / RFU KIR2DL2 /// KIR2DL4 /// KIR2DL5A /// KIR2DL5B /// KIR2DS1 /// KIR2DS2 /// KIR2DS3 /// KIR2DS4 /// KIR3DL3 /// KIR3DL3 /// KIR3DS1 (11738374_at) / Fold change /veh KIR2DL2 /// KIR2DL4 /// KIR2DL5A /// KIR2DL5B /// KIR2DS1 /// KIR2DS2 /// KIR2DS3 /// KIR2DS4 /// KIR3DL3 /// KIR3DL3 /// KIR3DS1 (11738374_at) / RFU C1QL1 (11718748_at) / Fold change /veh C1QL1 (11718748_at) / RFU TMPRSS4 (11747572_a_at) / Fold change /veh TMPRSS4 (11747572_a_at) / RFU HAMP (11756126_x_at) / Fold change /veh HAMP (11756126_x_at) / RFU RNFT2 (11725882_a_at) / Fold change /veh RNFT2 (11725882_a_at) / RFU NR4A2 (11747474_a_at) / Fold change /veh NR4A2 (11747474_a_at) / RFU ABCC12 (11746883_a_at) / Fold change /veh ABCC12 (11746883_a_at) / RFU TMEM136 (11760407_x_at) / Fold change /veh TMEM136 (11760407_x_at) / RFU CLDN22 /// WWC2 (11732394_at) / Fold change /veh CLDN22 /// WWC2 (11732394_at) / RFU HLA-DPB1 (11760878_x_at) / Fold change /veh HLA-DPB1 (11760878_x_at) / RFU SPINT1 (11716480_a_at) / Fold change /veh SPINT1 (11716480_a_at) / RFU GAP43 (11754022_s_at) / Fold change /veh GAP43 (11754022_s_at) / RFU A4GNT (11735810_at) / Fold change /veh A4GNT (11735810_at) / RFU PRB3 (11715151_x_at) / Fold change /veh PRB3 (11715151_x_at) / RFU TUBB4B (11761932_at) / Fold change /veh TUBB4B (11761932_at) / RFU CAPN14 (11732068_a_at) / Fold change /veh CAPN14 (11732068_a_at) / RFU TMCC2 (11721928_a_at) / Fold change /veh TMCC2 (11721928_a_at) / RFU IRGQ (11745062_a_at) / Fold change /veh IRGQ (11745062_a_at) / RFU FAM174B (11720279_a_at) / Fold change /veh FAM174B (11720279_a_at) / RFU TMPRSS4 (11748680_a_at) / Fold change /veh TMPRSS4 (11748680_a_at) / RFU FAM212B (11763350_a_at) / Fold change /veh FAM212B (11763350_a_at) / RFU PLEKHG5 (11743358_a_at) / Fold change /veh PLEKHG5 (11743358_a_at) / RFU ZSCAN30 (11745921_a_at) / Fold change /veh ZSCAN30 (11745921_a_at) / RFU CMKLR1 (11741424_a_at) / Fold change /veh CMKLR1 (11741424_a_at) / RFU LOC101060620 /// MAPK8IP1 (11723275_at) / Fold change /veh LOC101060620 /// MAPK8IP1 (11723275_at) / RFU SPTSSB (11747773_x_at) / Fold change /veh SPTSSB (11747773_x_at) / RFU PRSS12 (11739890_at) / Fold change /veh PRSS12 (11739890_at) / RFU BIN1 (11741810_x_at) / Fold change /veh BIN1 (11741810_x_at) / RFU WNT11 (11732464_a_at) / Fold change /veh WNT11 (11732464_a_at) / RFU C10orf10 (11716521_a_at) / Fold change /veh C10orf10 (11716521_a_at) / RFU C5orf56 (11738089_at) / Fold change /veh C5orf56 (11738089_at) / RFU CYB561 (11721691_x_at) / Fold change /veh CYB561 (11721691_x_at) / RFU ANKRD19P (11752326_a_at) / Fold change /veh ANKRD19P (11752326_a_at) / RFU OR2T12 /// OR2T33 /// OR2T8 (11738714_s_at) / Fold change /veh OR2T12 /// OR2T33 /// OR2T8 (11738714_s_at) / RFU VCAN (11748164_a_at) / Fold change /veh VCAN (11748164_a_at) / RFU JSRP1 (11732532_at) / Fold change /veh JSRP1 (11732532_at) / RFU KRTAP10-11 (11738290_x_at) / Fold change /veh KRTAP10-11 (11738290_x_at) / RFU MYO3A (11730013_a_at) / Fold change /veh MYO3A (11730013_a_at) / RFU EBF3 (11725865_a_at) / Fold change /veh EBF3 (11725865_a_at) / RFU CAMK2N1 (11719241_x_at) / Fold change /veh CAMK2N1 (11719241_x_at) / RFU C5orf56 (11738088_a_at) / Fold change /veh C5orf56 (11738088_a_at) / RFU OLFML3 (11715873_a_at) / Fold change /veh OLFML3 (11715873_a_at) / RFU LOC100653217 /// NTM (11731650_a_at) / Fold change /veh LOC100653217 /// NTM (11731650_a_at) / RFU MAPK11 (11762145_a_at) / Fold change /veh MAPK11 (11762145_a_at) / RFU FIZ1 (11724087_x_at) / Fold change /veh FIZ1 (11724087_x_at) / RFU OASL (11726364_x_at) / Fold change /veh OASL (11726364_x_at) / RFU SOX15 (11748057_x_at) / Fold change /veh SOX15 (11748057_x_at) / RFU CD79A (11719716_a_at) / Fold change /veh CD79A (11719716_a_at) / RFU HIST1H1D (11736915_at) / Fold change /veh HIST1H1D (11736915_at) / RFU CASKIN2 (11723855_a_at) / Fold change /veh CASKIN2 (11723855_a_at) / RFU LOC730098 (11760151_x_at) / Fold change /veh LOC730098 (11760151_x_at) / RFU OR4N2 (11742367_at) / Fold change /veh OR4N2 (11742367_at) / RFU PRRT2 (11749266_a_at) / Fold change /veh PRRT2 (11749266_a_at) / RFU SNX32 (11753110_a_at) / Fold change /veh SNX32 (11753110_a_at) / RFU CDHR5 (11726645_a_at) / Fold change /veh CDHR5 (11726645_a_at) / RFU RCAN1 (11760418_a_at) / Fold change /veh RCAN1 (11760418_a_at) / RFU FAM167A (11723789_a_at) / Fold change /veh FAM167A (11723789_a_at) / RFU FAM26E (11764081_at) / Fold change /veh FAM26E (11764081_at) / RFU ISYNA1 (11749810_s_at) / Fold change /veh ISYNA1 (11749810_s_at) / RFU ACY1 (11761880_at) / Fold change /veh ACY1 (11761880_at) / RFU 11764098_at / Fold change /veh 11764098_at / RFU SAMD14 (11745864_x_at) / Fold change /veh SAMD14 (11745864_x_at) / RFU NPB (11741838_a_at) / Fold change /veh NPB (11741838_a_at) / RFU TMPRSS6 (11731388_a_at) / Fold change /veh TMPRSS6 (11731388_a_at) / RFU KRTAP10-2 (11738614_at) / Fold change /veh KRTAP10-2 (11738614_at) / RFU ARHGAP8 /// PRR5-ARHGAP8 (11727945_x_at) / Fold change /veh ARHGAP8 /// PRR5-ARHGAP8 (11727945_x_at) / RFU KRTAP5-7 /// NADSYN1 (11734609_at) / Fold change /veh KRTAP5-7 /// NADSYN1 (11734609_at) / RFU RASL12 (11751679_a_at) / Fold change /veh RASL12 (11751679_a_at) / RFU CDKN2B (11736163_a_at) / Fold change /veh CDKN2B (11736163_a_at) / RFU PRF1 (11729649_at) / Fold change /veh PRF1 (11729649_at) / RFU, ZNF638 /// ZNF638-IT1 / Fold change vs veh, ZNF638 /// ZNF638-IT1 / RFU, PANK3 / Fold change vs veh, PANK3 / RFU, SH3YL1 / Fold change vs veh, SH3YL1 / RFU, ZEB2 / Fold change vs veh, ZEB2 / RFU, NRIP1 / Fold change vs veh, NRIP1 / RFU, PTTG1IP / Fold change vs veh, PTTG1IP / RFU, CAPN2 / Fold change vs veh, CAPN2 / RFU, MED14 / Fold change vs veh, MED14 / RFU, SNORA58 / Fold change vs veh, SNORA58 / RFU, C1orf63 / Fold change vs veh, C1orf63 / RFU, LRRFIP1 / Fold change vs veh, LRRFIP1 / RFU, NDUFAF7 / Fold change vs veh, NDUFAF7 / RFU, SLC12A2 / Fold change vs veh, SLC12A2 / RFU, IBTK / Fold change vs veh, IBTK / RFU, ESF1 / Fold change vs veh, ESF1 / Fold change vs veh, TMEM50B / RFU, TAOK1 / Fold change vs veh, TAOK1 / RFU, ACBD3 / Fold change vs veh, ACBD3 / RFU, TMA16 / Fold change vs veh, TMA16 / RFU, RWDD3 / Fold change vs veh, RWDD3 / RFU, BCAT1 / Fold change vs veh, BCAT1 / RFU, EDEM3 / Fold change vs veh, EDEM3 / RFU, TMEM33 / Fold change vs veh, TMEM33 / RFU, WDR75 / Fold change vs veh, WDR75 / RFU, AHCTF1 / Fold change vs veh, AHCTF1 / RFU, TFRC / Fold change vs veh, TFRC / RFU, ZDHHC17 / Fold change vs veh, ZDHHC17 / RFU, NOM1 / Fold change vs veh, NOM1 / RFU, ARL8B / Fold change vs veh, ARL8B / RFU, ZBTB11 / Fold change vs veh, ZBTB11 / RFU, TAMM41 / Fold change vs veh, TAMM41 / RFU, KIAA1704 /// LOC100996395 / Fold change vs veh, KIAA1704 /// LOC100996395 / RFU, ING1 / Fold change vs veh, ING1 / RFU, TRMT61B / Fold change vs veh, TRMT61B / RFU, FUBP3 / Fold change vs veh, FUBP3 / RFU, TP53 / Fold change vs veh, TP53 / RFU, TNKS2 / Fold change vs veh, TNKS2 / RFU, ZFP14 / Fold change vs veh, ZFP14 / RFU, ACTR2 / Fold change vs veh, ACTR2 / RFU, PPP3R1 / Fold change vs veh, PPP3R1 / RFU, PIK3R1 / Fold change vs veh, PIK3R1 / RFU, HNRNPA1 / Fold change vs veh, HNRNPA1 / RFU, RNF170 / Fold change vs veh, RNF170 / RFU, ZNF28 / Fold change vs veh, ZNF28 / RFU, RNGTT / Fold change vs veh, RNGTT / RFU, OGT / Fold change vs veh, OGT / RFU, BRD1 / Fold change vs veh, BRD1 / RFU, MARS / Fold change vs veh, MARS / RFU, ZNF655 / Fold change vs veh, ZNF655 / RFU, FAHD1 / Fold change vs veh, FAHD1 / RFU, BDP1 / Fold change vs veh, BDP1 / RFU, LRRCC1 / Fold change vs veh, LRRCC1 / RFU, ARID1A / Fold change vs veh, ARID1A / RFU, ZNF146 / Fold change vs veh, ZNF146 / RFU, ZNF330 / Fold change vs veh, ZNF330 / RFU, GPN3 / Fold change vs veh, GPN3 / RFU, C9orf123 / Fold change vs veh, C9orf123 / RFU, N4BP2L2 / Fold change vs veh, N4BP2L2 / RFU, ARFIP1 / Fold change vs veh, ARFIP1 / RFU, FAM179B / Fold change vs veh, FAM179B / RFU, BCL10 / Fold change vs veh, BCL10 / RFU, UHRF1BP1L / Fold change vs veh, UHRF1BP1L / RFU, BET1 / Fold change vs veh, BET1 / RFU, CNOT2 / Fold change vs veh, CNOT2 / RFU, ZNF268 / Fold change vs veh, ZNF268 / Fold change vs veh, ZNF507 / RFU, DGCR2 / Fold change vs veh, DGCR2 / RFU, WDSUB1 / Fold change vs veh, WDSUB1 / Fold change vs veh, HSP90B1 /// MIR3652 / RFU, ADSS / Fold change vs veh, ADSS / RFU, GK / Fold change vs veh, GK / RFU, ZNF148 / Fold change vs veh, ZNF148 / RFU, TAF9 / Fold change vs veh, TAF9 / RFU, SLC1A5 / Fold change vs veh, SLC1A5 / RFU, SLMO2 / Fold change vs veh, SLMO2 / RFU, ABCC4 / Fold change vs veh, ABCC4 / RFU, LOC101060439 /// RAP1B / Fold change vs veh, LOC101060439 /// RAP1B / RFU, RFX7 / Fold change vs veh, RFX7 / RFU, GTPBP10 / Fold change vs veh, GTPBP10 / RFU, CNEP1R1 / Fold change vs veh, CNEP1R1 / RFU, BIVM-ERCC5 /// ERCC5 / Fold change vs veh, BIVM-ERCC5 /// ERCC5 / RFU, ILF3 / Fold change vs veh, ILF3 / RFU 11762660_at / Fold change /veh 11762660_at / RFU VCAN (11757783_s_at) / Fold change /veh VCAN (11757783_s_at) / RFU DDX43 (11728927_at) / Fold change /veh DDX43 (11728927_at) / RFU KRT8 (11758188_x_at) / Fold change /veh KRT8 (11758188_x_at) / RFU NKD1 (11759106_at) / Fold change /veh NKD1 (11759106_at) / RFU SRD5A1 (11742802_a_at) / Fold change /veh SRD5A1 (11742802_a_at) / RFU TPSAB1 /// TPSB2 (11721975_s_at) / Fold change /veh TPSAB1 /// TPSB2 (11721975_s_at) / RFU GSTM3 (11746129_a_at) / Fold change /veh GSTM3 (11746129_a_at) / RFU IL23R (11737362_x_at) / Fold change /veh IL23R (11737362_x_at) / RFU TMEM51 (11727254_a_at) / Fold change /veh TMEM51 (11727254_a_at) / RFU PIWIL2 (11732686_x_at) / Fold change /veh PIWIL2 (11732686_x_at) / RFU ORM1 (11744905_x_at) / Fold change /veh ORM1 (11744905_x_at) / RFU CCDC152 (11743942_at) / Fold change /veh CCDC152 (11743942_at) / RFU ECM1 (11717891_a_at) / Fold change /veh ECM1 (11717891_a_at) / RFU IL23R (11748794_a_at) / Fold change /veh IL23R (11748794_a_at) / RFU TNFAIP8L3 (11732012_x_at) / Fold change /veh TNFAIP8L3 (11732012_x_at) / RFU MBOAT4 (11741988_at) / Fold change /veh MBOAT4 (11741988_at) / RFU 11764193_at / Fold change /veh 11764193_at / RFU TMEM53 (11763286_at) / Fold change /veh TMEM53 (11763286_at) / RFU MAGEB2 (11727129_at) / Fold change /veh MAGEB2 (11727129_at) / RFU TMEM200A (11744735_a_at) / Fold change /veh TMEM200A (11744735_a_at) / RFU CCDC152 (11751479_a_at) / Fold change /veh CCDC152 (11751479_a_at) / RFU FAM211A (11726209_a_at) / Fold change /veh FAM211A (11726209_a_at) / RFU RGS16 (11746705_a_at) / Fold change /veh RGS16 (11746705_a_at) / RFU VCAN (11755009_s_at) / Fold change /veh VCAN (11755009_s_at) / RFU RHOB (11743442_s_at) / Fold change /veh RHOB (11743442_s_at) / RFU RGS16 (11720943_a_at) / Fold change /veh RGS16 (11720943_a_at) / RFU RGS16 (11720944_at) / Fold change /veh RGS16 (11720944_at) / RFU, VPS4B / Fold change vs veh, VPS4B / RFU, CREB1 / Fold change vs veh, CREB1 / RFU, DNAJC13 / Fold change vs veh, DNAJC13 / RFU, GNAQ / Fold change vs veh, GNAQ / RFU, CDK5R1 / Fold change vs veh, CDK5R1 / RFU, ZRANB3 / Fold change vs veh, ZRANB3 / RFU, CUL4A / Fold change vs veh, CUL4A / RFU, CCNY / Fold change vs veh, CCNY / RFU, UFL1 / Fold change vs veh, UFL1 / RFU, COG3 / Fold change vs veh, COG3 / RFU, DIAPH2 / Fold change vs veh, DIAPH2 / RFU, SKA2 / Fold change vs veh, SKA2 / RFU, AFF3 / Fold change vs veh, AFF3 / RFU, LMF1 / Fold change vs veh, LMF1 / RFU, IPO11 / Fold change vs veh, IPO11 / RFU, DFFB / Fold change vs veh, DFFB / RFU, FOXP1 / Fold change vs veh, FOXP1 / RFU, CARD8 / Fold change vs veh, CARD8 / RFU, STRN3 / Fold change vs veh, STRN3 / RFU, ADK / Fold change vs veh, ADK / RFU, RASSF2 / Fold change vs veh, RASSF2 / RFU, WIPF1 / Fold change vs veh, WIPF1 / RFU, LARP1B / Fold change vs veh, LARP1B / RFU, RASA1 / Fold change vs veh, RASA1 / RFU, RB1 / Fold change vs veh, RB1 / RFU, PPFIA1 / Fold change vs veh, PPFIA1 / RFU, MAT2A / Fold change vs veh, MAT2A / RFU, CCT5 / Fold change vs veh, CCT5 / RFU, WDR92 / Fold change vs veh, WDR92 / RFU, CUX1 / Fold change vs veh, CUX1 / RFU, TTC7A / Fold change vs veh, TTC7A / RFU, TMEM135 / Fold change vs veh, TMEM135 / RFU, DEPTOR / Fold change vs veh, DEPTOR / RFU, CPM / Fold change vs veh, CPM / RFU, DNAJB6 / Fold change vs veh, DNAJB6 / RFU, CACNA2D3 / Fold change vs veh, CACNA2D3 / RFU, DTX4 / Fold change vs veh, DTX4 / RFU, TFCP2 / Fold change vs veh, TFCP2 / RFU, GMCL1 /// GMCL1P1 / Fold change vs veh, GMCL1 /// GMCL1P1 / RFU, AEBP2 / Fold change vs veh, AEBP2 / RFU, SNHG1 /// SNORD22 /// SNORD25 /// SNORD26 /// SNORD27 /// SNORD28 /// SNORD29 /// SNORD31 / Fold change vs veh, SNHG1 /// SNORD22 /// SNORD25 /// SNORD26 /// SNORD27 /// SNORD28 /// SNORD29 /// SNORD31 / Fold change (Aza/veh), C12orf56 (ProbeSet 11735607_a_at) / Fold change (ACY-1035/veh), C12orf56 (ProbeSet 11735607_a_at) / Fold change (Aza/veh), FGFR1OP (ProbeSet 11751329_s_at) / Fold change (ACY-1035/veh), FGFR1OP (ProbeSet 11751329_s_at) / Fold change (Aza/veh), VPS36 (ProbeSet 11739960_a_at) / Fold change (ACY-1035/veh), VPS36 (ProbeSet 11739960_a_at) / RFU SYPL1 (11715823_x_at) / Fold change /veh SYPL1 (11715823_x_at) / RFU IGFBP7 (11715501_s_at) / Fold change /veh IGFBP7 (11715501_s_at) / RFU REEP3 (11722064_at) / Fold change /veh REEP3 (11722064_at) / RFU IGLL1 (11728026_x_at) / Fold change /veh IGLL1 (11728026_x_at): dose or concentration left out as unconfirmed
Conditions: ProbeSet 11733108_at; LIST D

SMILES: Nc1ccc(-c2cccs2)cc1NC(=O)c1ccc2c(c1)cc(C1CC1)n2CCN1CCOCC1 [ACY-1035]
- Fold change vs veh, GNAQ: 0.91

— publication PMC5218480 (PLoS ONE, 2017)
